From patent US20050209157A1, “Short bioactive peptides and methods for their use” (priority 2001, published 2005)
Converted amounts (≈) assume the structure as drawn. Like-named read-outs stand apart in the source and are kept apart here. No end group written: not given here.

What was measured:
[1] = test system: fungal; assay: Presently preferred antifungal peptides, selected from the MIC/MBC data; assay type: cell-based; settings: X = preferred
Excerpt: The peptide's “length” is the number of amino acid residues in the sequence.

[2] = test system: Pseudomonas aeruginosa ATCC 27853; assay: Antimicrobial assay I, modified protocol (tryptic soy broth), MBC; settings: minimum bactericidal concentration, Table 4
Method: (§3) The preparation of all media, stock solutions, and dilutions took place in a laminar flow hood to prevent contamination. Bacterial cells were freshly grown on antibiotic medium 2 agar slants (pH 7.0 at 25° C.). Bacteria were suspended and diluted in antibiotic medium 3 to about 10^4 cfu/ml and used as the inoculum. Sample solutions (100 μl/well) were added to plates according to the plate layout. Inoculum (100 μl/well) was added to achieve a final concentration of 5×10^3 cfu/ml. Negative controls received 100 μl saline and 100 μl growth medium. Positive controls received 100 μl saline and 100 μl inoculum. Bacterial plates were incubated at 37° C. for 24 hours.
(§4) However, the data for Table 4 were obtained with a modified protocol wherein the medium was tryptic soy broth, inocolum strength was approximately 10^4 CFU per ml, and values determined were minimum bactericidal concentrations (MBC) or minimum fungicidal concentrations (MFC).
(§5) MBC or MFC values are in μg/mL. E. coli is Escherichia coli ATCC accession number 25922; P. aerug is Pseudomonas aeruginosa ATCC accession number 27853, S. aur. is Stapholococcus aureus ATCC accession number 25923; Candida is Candida albicans ATCC accession number 10231.

[3] = test system: Stapholococcus aureus ATCC 25923; assay: as above; settings: minimum bactericidal concentration, Table 4
[4] = test system: Escherichia coli ATCC 25922; assay: as above; settings: minimum bactericidal concentration, Table 4
[5] = test system: Candida albicans ATCC 10231; assay: Antimicrobial assay I, modified protocol (tryptic soy broth), MFC; settings: minimum fungicidal concentration, Table 4
Method: as §3, §4, §5

[6] = test system: P. aeruginosa H374; assay type: cell-based, Pseudomonas aeruginosa; settings: mean of three; 16 to 20 hours at 35° C.
[7] = in vitro; assay type: cell-based, human; settings: human, human red blood cells
[8] = test system: P. acne ATCC 6919; assay: Antimicrobial assays II, NCCLS broth microdilution MIC; assay type: cell-based, Propionibacterium acnes; settings: mean of three, in µg/mL
[9] = test system: P. aeruginosa H774; assay type: cell-based, Pseudomonas aeruginosa; settings: P. aeruginosa H744; nalidixic acid + peptide at ¼ MIC; 0.5 or less = synergy
In short: (§1)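 Efflux-mutant strains were tested with two-fold serial dilutions of chloramphenicol or nalidixic acid, alone and with peptide held at ¼ of its own MIC.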

[10] = test system: P. aeruginosa; assay type: cell-based, Pseudomonas aeruginosa; settings: P. aeruginosa H744; MIC of nalidixic acid with peptide at ¼ MIC
In short: as §1

[11] = test system: P. aeruginosa H374; assay type: cell-based, Pseudomonas aeruginosa; settings: for MIC Cm-comb.: MIC of chloramphenicol with peptide at ¼ MIC; for MIC Nal-comb.: MIC of nalidixic acid with peptide at ¼ MIC; for FIC Index: 0.5 or less = synergy
In short: as §1

[12] = in vitro; settings: human, WI38 normal lung fibroblast cells
[13] = test system: Staphylococcus aureus ATCC 6538; assay: Antimicrobial assay I, MIC by OD measurement; assay type: cell-based; settings: 37° C. for 24 hours, absorbance 620 nm
[14] = test system: Pseudomonas aeruginosa ATCC 9027; assay: Antimicrobial assay I, MIC by OD measurement; assay type: cell-based; settings: 37° C. for 24 hours, absorbance 620 nm
[15] = test system: S. pneumoniae C719; assay: Antimicrobial assays II, NCCLS broth microdilution MIC; assay type: cell-based, Streptococcus pneumoniae; settings: mean of three, in µg/mL
[16] = test system: S. pyogenes ATCC19615; assay: as above; assay type: cell-based, Streptococcus pyogenes; settings: mean of three, in µg/mL
[17] = test system: S. pneumoniae C718; assay: as above; assay type: cell-based, Streptococcus pneumoniae; settings: mean of three
[18] = test system: WI38; settings: MTT, 24 hours with peptide; for WI38 LD50: normal fibroblast line
[19] = test system: S. typhimurium 14028S; assay type: cell-based, Salmonella typhimurium; settings: mean of three; 16 to 20 hours at 35° C.; in µg/mL
[20] = test system: MCF7; assay: Anti-cancer assay, MTT, LD50; assay type: cell-based; settings: MCF7 breast adenocarcinoma line, MTT, 24 hours with peptide
Excerpt: (§2) Numbers are LD50 values (μg/mL).

[21] = test system: PC3; assay: Anti-cancer assay, MTT, LD50; assay type: cell-based; settings: 24 hours with peptide, prostate adenocarcinoma
Excerpt: as §2

[22] = test system: HeLaS3; assay: Anti-cancer assay, MTT, LD50; assay type: cell-based; settings: 24 hours with peptide, cervical carcinoma
Excerpt: as §2

[23] = test system: H1299; assay: Anti-cancer assay, MTT, LD50; assay type: cell-based; settings: 24 hours with peptide, lung large cell carcinoma
Excerpt: as §2

[24] = test system: BMKC; assay: Anti-cancer assay, MTT, LD50; assay type: cell-based; settings: BMKC cloned melanoma line, 24 hours with peptide
Excerpt: as §2

[25] = test system: SW480; assay: Anti-cancer assay, MTT, LD50; assay type: cell-based; settings: SW480 colon adenocarcinoma line, 24 hours with peptide
Excerpt: as §2

[26] = test system: S. epidermidis C621; assay type: cell-based, Staphylococcus epidermidis; settings: mean of three; 16 to 20 hours at 35° C.
[27] = test system: S. pyogenes M76; assay: Antimicrobial assays II, NCCLS broth microdilution MIC; assay type: cell-based, Streptococcus pyogenes; settings: mean of three; 16 to 20 hours at 35° C.
[28] = test system: E. coli UB1005; assay type: cell-based, Escherichia coli; settings: mean of three; 16 to 20 hours at 35° C.; in µg/mL
[29] = test system: S. aureus (MRSA); assay type: cell-based, Staphylococcus aureus; settings: mean of three; 16 to 20 hours at 35° C.
[30] = test system: human red blood cells (RBC); assay: in vitro; assay type: cell-based; settings: hemolytic assay, concentration at 50% hemolysis, 1 hour at 37° C.
[31] = test system: yeast (Saccharomyces cerevisiae); assay: Antimicrobial assay I, yeast assay in RPMI 1640; assay type: cell-based; settings: RPMI 1640 media
[32] = pH 7, hemolytic assay, concentration at 50% hemolysis, 1 hour at 37° C., read-out: LD50
[33] = chloramphenicol + peptide at ¼ MIC
[34] = nalidixic acid + peptide at ¼ MIC, FIC=0.25+MIC comb/MIC alone
[35] = LD50 WI38, WI38 normal lung fibroblast line, MTT, 24 hours with peptide

Row | Compound | Anti-fungal (preferred peptide) [1] | P. acne MIC [8] | FIC Index [9] | MIC Nal-comb. [10] [µg/mL] | MIC Cm-comb. [11] [µg/mL] | MIC Nal-comb. [11] [µg/mL] | FIC Index [11, 33] | FIC Index [11, 34] | S. pneumoniae MIC [15] | S. pyogenes MIC [16] | S. pneumoniae MIC [17] [µg/mL] | WI38 LD50 [18] | LD50 MCF7 [20] | PC3 LD50 [21] | HeLaS3 LD50 [22] | H1299 LD50 [23] | LD50 BMKC [24] | LD50 SW480 [25] | S. epidermidis C621 MIC [26] [µg/mL] | S. pyogenes M76 MIC [27] [µg/mL] | also measured
1 | FALALKALKKAL-NH2 [compound 144] | X (Preferred antifungal peptides can be selected as having MIC or MBC values of less than or equal to about 25 μg/ml) |  |  |  |  |  |  |  |  |  |  |  |  |  |  |  |  |  |  |  | MBC P. aerug A.27853 [2]: 25 µg/mL; MBC S. aur A.25923 [3]: 25 µg/mL; MBC E. coli A.25922 [4]: 10 µg/mL; MFC Candida A.10231 [5]: 25 µg/mL
2 | CC(C)C[C@H](NC(=O)[C@H](C)NC(=O)[C@H](CCCCN)NC(=O)[C@H](CC(C)C)NC(=O)[C@H](C)NC(=O)[C@H](CC(C)C)NC(=O)[C@H](C)NC(=O)[C@H](CC(C)C)NC(=O)[C@H](CCCCN)NC(=O)[C@H](C)NC(=O)[C@H](CC(C)C)NC(=O)[C@H](CCCCN)NC(=O)[C@H](CCCCN)NC(=O)[C@H](C)NC(=O)[C@H](CC(C)C)NC(=O)[C@H](CCCCN)NC(=O)[C@H](CCCCN)NC(=O)[C@H](CC(C)C)NC(=O)[C@H](CCCCN)NC(=O)[C@H](CCCCN)NC(=O)[C@H](C)NC(=O)[C@H](CC(C)C)NC(=O)[C@H](CCCCN)NC(=O)[C@H](CCCCN)NC(=O)[C@H](C)NC(=O)[C@@H](N)Cc1ccccc1)C(=O)N[C@@H](C)C(=O)N[C@@H](CC(C)C)C(=O)N[C@@H](CCCCN)C(=O)N[C@@H](C)C(=O)O [compound 100] | X (Preferred antifungal peptides can be selected as having MIC or MBC values of less than or equal to about 25 μg/ml) |  |  |  |  |  |  |  |  |  |  |  |  |  |  |  |  |  |  |  | 
3 | FAKKLAKKLKKLAKLALAK-NH2 [P41] |  | 4 | 1.25 | 624 | 16 | 5000 | 1.25 | 1.25 | 32 | 8 | 64 | 175 µg/mL | 98 µg/mL | 140 µg/mL | 185 µg/mL | 245 µg/mL | 290 µg/mL | 120 µg/mL | 4 | 8 | P. aeruginosa H374 MIC [6]: 4 µg/mL; HC50 at 1 h [7, 32]: 40 µg/mL; CC50 at 24 h [12, 35]: 175 µg/mL; staph6538 (MIC) [13]: 10 µg/mL; paerug9027 (MIC) [14]: 10 µg/mL; S. typhimurium 14028S MIC [19]: 4; E. coli UB1005 MIC [28]: 2; S. aureus (MRSA) MIC [29]: 64 µg/mL
4 | VALALKALKKLLKKLKKLAKKAL-NH2 [compound 510] | X (Preferred antifungal peptides can be selected as having MIC or MBC values of less than or equal to about 25 μg/ml) |  |  |  |  |  |  |  |  |  |  |  |  |  |  |  |  |  |  |  | HC50 at 1 h ([7]; pH 7, Table 26, valine substitution, read-out: Hemolysis RBC LD50): 10 µg/mL; CC50 at 24 h ([12]; WI-38 LD50, Table 26, valine substitution): 77 µg/mL
5 | FALALKAKKL-NH2 [compound 182] | X (Preferred antifungal peptides can be selected as having MIC or MBC values of less than or equal to about 25 μg/ml) |  |  |  |  |  |  |  |  |  |  |  |  |  |  |  |  |  |  |  | 
6 | FAKLAKKLL-NH2 [P60] |  | 4 | 1.25 | 624 | 4 | 1250 | 0.5 | 0.5 | >128 | 8 | 128 | > (> indicates greater than 1000) | > (> indicates greater than 1000) | > (> indicates greater than 1000) | > (> indicates greater than 1000) | > (> indicates greater than 1000) | > (> indicates greater than 1000) | > (> indicates greater than 1000) | 4 | 8 | LD50 [30]: > (> indicates greater than 1000); staph6538 (MIC) [13]: 200 µg/mL; paerug9027 (MIC) [14]: 100 µg/mL; yeast (MIC or MFC) [31]: 200 µg/mL; LD50 WI38 ([18]; WI38 normal lung fibroblast line): > (> indicates greater than 1000); S. aureus (MRSA) MIC [29]: 32 µg/mL
7 | FAKLLAKALKKFL-NH2 [compound 118] | X (Preferred antifungal peptides can be selected as having MIC or MBC values of less than or equal to about 25 μg/ml) |  |  |  |  |  |  |  |  |  |  |  |  |  |  |  |  |  |  |  | MBC P. aerug A.27853 [2]: 25 µg/mL; MBC E. coli A.25922 [4]: 8 µg/mL
8 | CC(C)C[C@H](NC(=O)[C@H](C)NC(=O)[C@H](CC(C)C)NC(=O)[C@H](CCCCN)NC(=O)[C@H](C)NC(=O)[C@H](CC(C)C)NC(=O)[C@H](CCCCN)NC(=O)[C@H](CCCCN)NC(=O)[C@H](C)NC(=O)[C@H](CC(C)C)NC(=O)[C@H](CCCCN)NC(=O)[C@H](C)NC(=O)[C@H](CC(C)C)NC(=O)[C@H](CCCCN)NC(=O)[C@H](CCCCN)NC(=O)[C@H](C)NC(=O)[C@@H](N)Cc1ccccc1)C(=O)O [P61] |  | 2 | 1.25 | 624 | 16 | 5000 | 1.25 | 1.25 | 32 | 16 | 128 | 93 µg/mL | 105 µg/mL | 66 µg/mL | 170 µg/mL | 127 µg/mL | 140 µg/mL | 100 µg/mL | 8 | 16 | P. aeruginosa H374 MIC [6]: 4 µg/mL; HC50 at 1 h [7, 32]: 390 µg/mL; CC50 at 24 h [12, 35]: 93 µg/mL (≈ 50.1 µM); S. typhimurium 14028S MIC [19]: 4; E. coli UB1005 MIC [28]: 2; S. aureus (MRSA) MIC [29]: 32 µg/mL
